Laboratory results taken from US11383009B2, “Rapamycin 40-O-cyclic hydrocarbon esters, compositions and methods” (BIOTRONIK AG, priority 2012, dated 2022).
Several values for one entry are separate records, joined by “and”; a condition that tells them apart may be missing. Identical values can stand only once.

Columns and labels:
[1] = Stent coating condition after stent expansion (ductility); conditions: coating of 1:1 weight ratio drug and polylactic acid; compared with rapamycin coating
From the text: In accordance with one of the unexpected advantages of the present invention, it has been discovered that a coating formed with the compounds of the present invention is substantially more ductile, i.e., less prone to cracking, than a coating formed with rapamycin. This property can be seen from the photomicrographs of FIGS. 1 and 2, which show the condition of a stent coating after stent expansion in a stent formed of a 1:1 weight ratio of […] and polylactic acid (FIG. 1) and a coating formed of a 1:1 weight ratio of Compound 1 (Table I) and polylactic acid (FIG. 2). […] An important advantage of the drug compound in this setting is that a coating with a high drug:polymer ratio can be prepared without the need for addition of a separate plasticizer, which may cause toxic responses, affect drug elution rates, and extend development times and increase production costs.

[2] = Drug stability in rabbit vitreous humour at 37° C.; type: in vitro ADME, New Zealand White rabbit
From the text: (§1) The assay comparison between sirolimus and the compounds of the present invention (denoted as CRC) is further described at Table XI.

[3] = tested on: vascular restenosis, porcine coronary arteries; experiment: Trial B: coated magnesium stents implanted in porcine coronary arteries, 28 days; conditions: Group 1 (n = 5 stents), 223 μg drug in polylactic acid on parylene C coated magnesium stent; 28 days post-implant
From the text: Coronary artery measurements were made from angiographic images before stent deployment, immediately after deployment, and twenty-eight days after deployment to determine the effectiveness of the coated stent in reducing restenosis. Determination of angiographic late loss was made by subtraction of the minimum vessel lumen diameter of the stented vessel at 28 days post-implant from the minimal vessel lumen diameter at the time of implant. Determination of percent diameter stenosis was made at 28 days post-implant by the calculation of 100(1-MLD/refdia.) where MLD represents the minimum vessel lumen diameter at 28 days post-implant and refdia. is the average diameter of the vessel sections adjacent to the stented vessel.

[4] = Drug elution and total recovery from polymer-coated stents; type: physicochemical; conditions: single stent, 1:1 drug/polylactic acid coating; 25% ethanol in water, 37° C., 168 hours elution plus exhaustive acetonitrile extraction
Method: This section examines the stability of the compounds of the invention when released from a reservoir over a several-day to several-week period. In one study, a series of stents were prepared with a suitable coating of drug/polymer mixture. The stents were fabricated from laser cut and electropolished 316L Stainless Steel and measured 16 millimeters in length. The coating mixture contained an equal weight of polylactic acid and each of the compounds to be evaluated. The mixture components were weighed, combined in a glass vial with acetone at room temperature and then vortexed until all of the materials dissolved. Each individual stent was weighed using a Mettler model XP105 balance. […]
After visual inspection the stents were mounted onto 3.0 mm×16 mm angioplasty balloons using a hand crimper. […] The appropriate pressure for inflation was determined using the inflation table applicable to the angioplasty catheter. […]
For elution comparison each stent was transferred into its respective 7-mL borosilicate vial and 4.0 mL 25% ethanol in water (w/w) elution medium was added. […] The amount of drug eluted during each time interval was determined by HPLC. After a cumulative incubation of 168 hours, the remaining drug in each stent was determined by exhaustive extraction by adding 4.0 mL acetonitrile to each stent for 20 minutes at ambient temperature followed by vortexing for 10 seconds. […]

[5] = Drug stability in rabbit aqueous humour at 37° C.; type: in vitro ADME
From the text: as §1

[6] = 72 hours, drug dose 48.4 μg (SIR 1), 52.2 μg (CRC 1)
[7] = […], drug dose 47.8 μg (SIR 2), 54.0 μg (CRC 2)
[8] = 72 hours, drug dose 45.2 μg (SIR 1), 51.4 μg (CRC 1)

## COC1CC2CCC(C)C(O)(O2)C(=O)C(=O)N2CCCCC2C(=O)OC(C(C)CC2CCC(OC(=O)C3CC3)C(OC)C2)CC(=O)C(C)C=C(C)C(O)C(OC)C(=O)C(C)CC(C)C=CC=CC=C1C (stereo not shown) [Compound 1, Rapamycin 40-O-Cyclic Hydrocarbon Ester with Cyclopropanecarbonyl Chloride]
[1]
  condition of stent coating after stent expansion (ductility): more ductile

## CO[C@H]1C[C@@H]2CC[C@@H](C)[C@@](O)(O2)C(=O)C(=O)N2CCCC[C@H]2C(=O)O[C@H]([C@H](C)C[C@@H]2CC[C@@H](O)[C@H](OC)C2)CC(=O)[C@H](C)/C=C(\C)[C@@H](O)[C@@H](OC)C(=O)[C@H](C)C[C@H](C)/C=C/C=C/C=C/1C [Rapamycin]
[2]; 0 hrs
  Degradants (HPLC UV Area Percent): 3%
  Intact drug (HPLC UV Area Percent): 97%
[2]; 1 hrs
  Degradants (HPLC UV Area Percent): 3%
  Intact drug (HPLC UV Area Percent): 97%
[2]; 4 hrs
  Degradants (HPLC UV Area Percent): 7%
  Intact drug (HPLC UV Area Percent): 93%
[2]; 24 hrs
  Degradants (HPLC UV Area Percent): 43%
  Intact drug (HPLC UV Area Percent): 57%
[2]; 48 hrs
  Degradants (HPLC UV Area Percent): 71%
  Intact drug (HPLC UV Area Percent): 29%
[2]; [6]
  % Remaining (72 Hours): 8%
  Drug Remaining 72 Hours: 4.0 µg
[2]; 72 hrs
  Degradants (HPLC UV Area Percent): 84%
  Intact drug (HPLC UV Area Percent): 16%
[2]; [7]
  % Remaining (192 Hours): 1%
  Drug Remaining 192 Hours: 0.6 µg
[3]
  Angiographic Late Loss: 0.42 mm
  Diameter Stenosis: 13.1%
[4]
  Total Drug (μg) Recovered: 109.1 µg and 84.6 µg and 103.4 µg and 125.2 µg and 71.6 µg
[5]; 0 hrs
  Degradants (HPLC UV Area Percent): 2%
  Intact drug (HPLC UV Area Percent): 98%
[5]; 1 hrs
  Degradants (HPLC UV Area Percent): 4%
  Intact drug (HPLC UV Area Percent): 96%
[5]; 4 hrs
  Degradants (HPLC UV Area Percent): 18%
  Intact drug (HPLC UV Area Percent): 82%
[5]; 24 hrs
  Degradants (HPLC UV Area Percent): 86%
  Intact drug (HPLC UV Area Percent): 14%
[5]; 48 hrs
  Degradants (HPLC UV Area Percent): 96%
  Intact drug (HPLC UV Area Percent): 4%
[5]; [8]
  % Remaining (72 Hours): 0%
  Drug Remaining 72 Hours: 0.0 µg
[5]; 72 hrs
  Degradants (HPLC UV Area Percent): 100%
  Intact drug (HPLC UV Area Percent): 0%
